The values that follow come from paper PMC13022235 (Nature Communications, 2026).

Each structure is given as a SMILES string. Changes are numbered by the printed parent chain. “Also recorded” adds a separate entry of the source. Bounds are passed on as bounds.

One data set concerns GlyT2. The following applies: read-out: IC50 for GlyT2; cited from earlier work.
The test system of another data set is male C57BL/6 J mice. Nature of the data set: Conditioned place preference. Type of data set: in vivo, mouse.
For data set [1], the system named is chronic constriction injury (CCI) mice. Nature of the data set: CCI model, cold allodynia. The format is in vivo, mouse. The following applies: for reduction of cold allodynia vs vehicle: acetone.
The target of data set [2] is T1, hGlyT2^WT (Homo sapiens, UniProt Q9Y345).
T1 sequence (Q9Y345 1-797): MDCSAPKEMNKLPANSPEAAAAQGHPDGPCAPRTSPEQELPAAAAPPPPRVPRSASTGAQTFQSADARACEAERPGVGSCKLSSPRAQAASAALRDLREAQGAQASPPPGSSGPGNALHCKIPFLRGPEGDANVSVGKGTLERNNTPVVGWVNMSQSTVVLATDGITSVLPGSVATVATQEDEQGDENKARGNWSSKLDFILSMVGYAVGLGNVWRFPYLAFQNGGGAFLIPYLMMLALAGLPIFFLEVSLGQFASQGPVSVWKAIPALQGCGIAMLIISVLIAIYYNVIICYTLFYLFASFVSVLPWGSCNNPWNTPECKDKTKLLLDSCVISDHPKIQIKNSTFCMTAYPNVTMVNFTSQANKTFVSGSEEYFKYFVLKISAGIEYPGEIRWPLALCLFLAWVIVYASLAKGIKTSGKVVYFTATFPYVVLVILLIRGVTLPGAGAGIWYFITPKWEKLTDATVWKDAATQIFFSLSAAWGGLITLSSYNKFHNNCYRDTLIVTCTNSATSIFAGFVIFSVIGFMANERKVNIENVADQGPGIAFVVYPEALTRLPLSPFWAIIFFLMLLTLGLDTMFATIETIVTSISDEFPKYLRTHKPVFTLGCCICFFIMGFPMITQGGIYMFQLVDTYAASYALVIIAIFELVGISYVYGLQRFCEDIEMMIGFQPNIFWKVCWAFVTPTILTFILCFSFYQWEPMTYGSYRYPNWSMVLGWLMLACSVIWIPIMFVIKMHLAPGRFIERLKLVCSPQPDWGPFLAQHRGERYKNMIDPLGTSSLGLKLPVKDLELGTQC
Nature of the data set: Reversibility from inhibition. The format is cell-based.

Data set [3] has as its target T2, hGlyT2^D633E (Homo sapiens, UniProt Q9Y345, D633E).
T2 sequence (Q9Y345 1-797 D633E): T1 sequence (Q9Y345 1-797) with D633E
Type of data set: cell-based. To be noted: D633E mutation.

The target in data set [4] is T3, hGlyT2^W215F (Homo sapiens, UniProt Q9Y345, W215F).
T3 sequence (Q9Y345 1-797 W215F): T1 sequence (Q9Y345 1-797) with W215F
Nature of the data set: Reversibility from inhibition. The format is cell-based.

Data set [5] deals with mice. To be noted: cited from earlier work.
The target in data set [6] is T3, hGlyT2^W215F. The format is cell-based.
Data set [7] concerns partial sciatic nerve ligation (PSNL) mice. The data set can be described thus: PSNL model, mechanical allodynia. Type of data set: in vivo, mouse. To be noted: 50 mg/kg i.p.
Another data set has as its target hNET (Homo sapiens, UniProt P23975). Nature of the data set: Cerep binding assay, displacement of 3H-nisoxetine. The following applies: 10 μM. For orientation: Loss of bound radioactivity is the signal in a displacement assay; it reports binding, not function.
For data set [8], the target named is T1, hGlyT2^WT. Type of data set: cell-based. To be noted: glycine dose-responses with RPI-GLYT2-82.
Data set [9] concerns mice. The data set can be described thus: Side effect scoring. The format is in vivo, mouse. To be noted: 250 mg/kg i.p.
A short description of data set [10]: PK Study 2: in-life plasma and CNS drug exposure after 50 mg/kg i.p. The format is in vivo, male C57BL/6 mice. The following applies: 30 min.
Another data set deals with T4, hGlyT1^WT (Homo sapiens, UniProt P48067).
T4 sequence (P48067 1-706): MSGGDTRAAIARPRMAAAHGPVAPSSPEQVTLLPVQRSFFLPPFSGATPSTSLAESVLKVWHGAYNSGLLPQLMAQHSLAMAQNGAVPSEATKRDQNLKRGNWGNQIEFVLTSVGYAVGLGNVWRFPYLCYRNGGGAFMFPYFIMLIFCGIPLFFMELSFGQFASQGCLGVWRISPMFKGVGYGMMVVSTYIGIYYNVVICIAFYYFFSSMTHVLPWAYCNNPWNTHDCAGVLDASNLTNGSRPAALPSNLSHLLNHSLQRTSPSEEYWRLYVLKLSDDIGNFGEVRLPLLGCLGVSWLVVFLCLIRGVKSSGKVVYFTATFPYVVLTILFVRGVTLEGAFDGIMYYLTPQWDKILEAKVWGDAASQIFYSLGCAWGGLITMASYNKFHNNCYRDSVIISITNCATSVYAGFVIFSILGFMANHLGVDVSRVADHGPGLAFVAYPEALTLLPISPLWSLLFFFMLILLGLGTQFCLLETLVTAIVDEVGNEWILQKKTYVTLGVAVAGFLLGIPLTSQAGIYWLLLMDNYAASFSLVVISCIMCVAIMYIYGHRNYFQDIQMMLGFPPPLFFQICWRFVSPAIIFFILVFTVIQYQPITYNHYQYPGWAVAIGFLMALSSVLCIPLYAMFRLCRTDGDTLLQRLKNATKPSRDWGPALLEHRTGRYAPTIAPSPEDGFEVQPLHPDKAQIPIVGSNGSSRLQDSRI
Nature of the data set: Two-electrode voltage clamp, GlyT1 selectivity test in oocytes. The format is cell-based. The following applies: 10 µM. (Two-electrode voltage clamp holds a large cell at a set potential and records current.)

Data set [11] has as its target T2, hGlyT2^D633E. Nature of the data set: Reversibility from inhibition. The format is cell-based. To be noted: GlyT2^D633E.
The test system of the next data set is naïve mice. The data set can be described thus: Accelerating rotarod, motor coordination. Type of data set: in vivo, mouse. Background: In the rotarod test animals must keep their balance on a rotating rod.
In another data set the test system is naïve, uninjured mice. Nature of the data set: Whole-body plethysmography. Type of data set: in vivo, mouse.
Another data set concerns the target hDAT (Homo sapiens, UniProt Q01959). The data set can be described thus: Cerep binding assay, displacement of 3H-BTCP. The following applies: 10 μM.
For data set [12], the system named is chronic constriction injury (CCI) mice. Nature of the data set: CCI model, mechanical allodynia. The format is in vivo, mouse.

Sequence of hDAT (Q01959 whole entry): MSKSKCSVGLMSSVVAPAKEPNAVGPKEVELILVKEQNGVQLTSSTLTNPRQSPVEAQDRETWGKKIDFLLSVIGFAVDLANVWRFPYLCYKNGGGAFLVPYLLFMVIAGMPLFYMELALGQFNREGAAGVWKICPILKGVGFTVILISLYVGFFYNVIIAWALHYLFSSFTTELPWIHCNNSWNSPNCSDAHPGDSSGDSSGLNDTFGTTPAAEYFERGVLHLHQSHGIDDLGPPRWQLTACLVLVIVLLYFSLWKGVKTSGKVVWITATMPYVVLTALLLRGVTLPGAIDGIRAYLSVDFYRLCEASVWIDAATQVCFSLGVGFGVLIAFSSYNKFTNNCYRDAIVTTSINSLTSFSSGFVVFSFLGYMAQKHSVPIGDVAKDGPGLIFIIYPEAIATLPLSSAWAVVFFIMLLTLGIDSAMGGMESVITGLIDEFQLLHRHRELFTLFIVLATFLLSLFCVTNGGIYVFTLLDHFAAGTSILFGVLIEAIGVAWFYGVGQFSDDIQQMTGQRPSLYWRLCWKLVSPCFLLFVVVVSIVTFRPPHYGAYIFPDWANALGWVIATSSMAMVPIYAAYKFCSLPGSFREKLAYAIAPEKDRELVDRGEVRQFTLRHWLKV
Sequence of hNET (P23975 whole entry): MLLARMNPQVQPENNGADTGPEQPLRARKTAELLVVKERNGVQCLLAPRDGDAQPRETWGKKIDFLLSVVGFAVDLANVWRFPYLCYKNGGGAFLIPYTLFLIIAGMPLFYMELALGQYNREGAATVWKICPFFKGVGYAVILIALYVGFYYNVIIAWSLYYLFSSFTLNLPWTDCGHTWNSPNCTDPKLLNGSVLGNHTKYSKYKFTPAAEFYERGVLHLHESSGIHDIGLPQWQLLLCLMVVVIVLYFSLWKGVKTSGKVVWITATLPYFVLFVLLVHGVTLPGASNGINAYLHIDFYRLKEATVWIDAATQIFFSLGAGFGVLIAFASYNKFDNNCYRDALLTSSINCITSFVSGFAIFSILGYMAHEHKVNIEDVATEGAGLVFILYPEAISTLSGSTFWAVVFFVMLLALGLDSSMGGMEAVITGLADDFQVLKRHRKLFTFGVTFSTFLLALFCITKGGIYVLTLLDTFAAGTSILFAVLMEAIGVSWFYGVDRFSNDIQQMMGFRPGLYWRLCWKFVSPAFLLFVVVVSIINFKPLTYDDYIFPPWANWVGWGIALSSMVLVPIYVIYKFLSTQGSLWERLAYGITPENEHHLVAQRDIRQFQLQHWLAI

For orientation: IC50 means the concentration needed to halve the response being measured. Take `CCCCOc1c(OC)cc(C(=O)NCC2(N(C)C)CCOCC2)cc1OC` [opiranserin]: the IC50 in the data set with GlyT2 is 860 nM.

Consider `CN1CC[C@]23c4c5ccc(O)c4O[C@H]2[C@@H](O)C=C[C@H]3[C@H]1C5` [Morphine, reference compound], for which the “conditioned place preference” value in the data set with male C57BL/6 J mice (morphine 10 mg/kg i.p.) is “significant increase in preference for the paired chamber”.

As to `NCC1(CC(=O)O)CCCCC1` [Gabapentin, reference compound], in data set [1] (gabapentin 100 mg/kg), the “reduction of cold allodynia vs vehicle” value is “significant at 1-6 hours”.

As for `COc1cc(C(=O)NCC2(N(C)C)CCCC2)cc(OC)c1OCc1ccccc1` [ORG25543, 4-(benzyloxy)-N-{[1-(dimethylamino)cyclopentyl]methyl}−3,5-dimethoxybenzamide], the “reversibility of inhibition” value on hGlyT2^WT [2] (hGlyT2, washout 30 min) is “prolonged inhibitory effects with minimal restoration of glycine-induced currents”. For the same compound, at hGlyT2^WT [2] (hGlyT2^WT, 30 minutes washout), the “currents restored, % of pre-inhibitor levels” value was 12.5%. Also, the “decrease in potency of inhibition vs WT” value at hGlyT2^D633E [3] was ~ 14 fold; on hGlyT2^W215F [6] (W215F mutation), “~ three-fold”. At hGlyT2^W215F [4] (hGlyT2^W215F), the “effect of mutation on washout” value is “significantly increased the rate of ORG25543 washout”. The “mechanical allodynia” value with mice [5] (50 mg/kg) was “reversed mechanical allodynia”. For the same compound, the “side effects” value with mice [5] (50 mg/kg) is “near-complete loss of rotarod performance, seizures and in one case, lethality”. Besides, the “effects on inflammatory and acute nociceptive pain thresholds” value in the data set with mice [5] was “no effects on inflammatory and acute nociceptive pain thresholds”.

For the compound `CN(C)C1(CNC(=O)c2ccc3c(c2)CCN3C(=O)c2ccccc2)CCOCC1` [RPI-GLYT2-82, 1-benzoyl-N-((4-(dimethylamino)tetrahydro-2H-pyran-4-yl)methyl)indoline-5-carboxamide], the “reduction of mechanical allodynia vs vehicle” value in data set [7] is “significant at 90 minutes and 2-hours post-injection compared to vehicle”. The “displacement of 3H-nisoxetine from hNET / inhibition” value at hNET is less than 5%. Besides, the “conditioned place preference” value in the data set with male C57BL/6 J mice (50 and 150 mg/kg i.p.) is listed as “no significant preference”. Further, the “mechanism of inhibition” value on hGlyT2^WT [8] is “non-competitive inhibitor”. Also, the “sedation” value in the data set with mice [9] was “transient sedation, which was most apparent in the first 15–30 minutes and fully recovered by 90 minutes”. Further, the “Cu,b, calculated unbound concentration in brain” value in data set [10] is 597.89 nM. Also, the “decrease in potency of inhibition vs WT” value on hGlyT2^D633E [3] is listed as more than 18 fold. Moreover, the “washout” value at hGlyT2^W215F [4] (GlyT2^W215F) and at hGlyT2^D633E [11] was “almost immediate” in each case. Also, the “effect on GlyT1” value at hGlyT1^WT was “minimal effect on GlyT1”. Further, the “time of peak anti-allodynia effects, cold allodynia” value in data set [1] (50 and 100 mg/kg i.p.) was not above 2 h. Also, in data set [1] (50 and 100 mg/kg i.p.), the “reduction of cold allodynia vs vehicle” value was “significantly reduced cold allodynia between 0.5 and 6-hours postinjection compared to vehicle”. The “neuromotor effects / muscle weakness” value in the data set with naïve mice (50 mg/kg, rotarod, grip strength, sedation) was “No deficits were observed; also recorded: not associated with adverse neuromotor effects or muscle weakness”. Further, the “initial reduction in baseline rotarod performance” value with naïve mice (250 mg/kg i.p.) stood at 61%. Besides, the “respiration” value in the data set with naïve, uninjured mice (50 mg/kg) was “did not change respiration frequency, minute volume (MVb), or tidal volume (TVb)”; in the data set on naïve, uninjured mice (250 mg/kg i.p.), “transient changes in respiratory frequency and MVb in the first hour, and TVb in the first 30 min”. Further, the IC50 at hGlyT2^W215F [6] is more than 30000 nM. In addition, the “displacement of 3H-BTCP from hDAT / inhibition” value on hDAT is ~ 20%. Further, the “efficacy against mechanical allodynia vs vehicle” value is “significant at 2 and 3 hours post-injection compared to vehicle” in data set [12] (50 mg/kg i.p.); “showed a similar trend at 2 and 3 hours” in [12] (100 mg/kg i.p.). Moreover, the “anti-allodynia, time of maximum efficacy” value in [12] (von Frey, 50 and 100 mg/kg i.p.) is “maximum efficacy between 90 min and 3 hours post-administration”.

As to `CCCCCCCC/C=C\CCCCCCCC(=O)N[C@H](CCCCN)C(=O)O` [oleoyl-D-lysine], the “effects on inflammatory and acute nociceptive pain thresholds” value in the data set on mice [5] was “no effects on inflammatory and acute nociceptive pain thresholds”.
